Assay results from patent publication US5223513A, “Quinoline derivatives, their production and use” (Takeda Chemical Industries, Ltd., priority 1989, dated 1993).

What was measured:
[1] = target: T1, acyl-CoA : cholesterol acyltransferase (ACAT) (Rattus norvegicus, UniProt Q7TQM4); experiment: Acyl-CoA : Cholesterol Acyltransferase (ACAT) inhibitory activity; type: biochemical; conditions: for inhibition at 1 µM: 10^-6 M of test compound, production of labeled cholesterol ester, read-out: ACAT Inhibition Rate (%); for IC50: calculated by plotting inhibition rates obtained at plural concentrations, read-out: 50% inhibitory concentration (IC50)
T1 construct: mucosal microsome fraction of the small intestine; from tissue; host or cells: mucosal microsome fraction of rat small intestine
T1 sequence (Q7TQM4 1-524): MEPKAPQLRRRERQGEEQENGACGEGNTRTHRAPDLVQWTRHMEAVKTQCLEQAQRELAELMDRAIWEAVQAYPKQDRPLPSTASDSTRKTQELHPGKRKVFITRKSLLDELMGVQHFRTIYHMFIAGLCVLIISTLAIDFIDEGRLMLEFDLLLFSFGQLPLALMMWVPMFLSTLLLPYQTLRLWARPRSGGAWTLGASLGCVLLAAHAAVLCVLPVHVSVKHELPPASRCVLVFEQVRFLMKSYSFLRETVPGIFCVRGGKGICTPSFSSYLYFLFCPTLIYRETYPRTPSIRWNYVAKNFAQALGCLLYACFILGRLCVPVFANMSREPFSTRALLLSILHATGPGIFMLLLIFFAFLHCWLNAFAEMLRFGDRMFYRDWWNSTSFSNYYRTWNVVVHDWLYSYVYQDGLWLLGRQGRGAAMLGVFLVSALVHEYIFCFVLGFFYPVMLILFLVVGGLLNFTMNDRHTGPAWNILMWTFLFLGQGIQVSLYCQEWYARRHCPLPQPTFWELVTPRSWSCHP
Method: The enzyme ACAT was prepared by the method of Heider et al. described in Journal of Lipid Research, Vol. 24, page 1127 (1982), from the mucosal microsome fraction of the small intestine of male, 6-week old Sprague-Dawley rats which had been fasted for 20 hours.
ACAT activity was calculated by the method of Helgerud et al. described in Journal of Lipid Research, Vol. 22, page 271 (1981), namely, by measuring the amount of the labeled cholesterol ester produced from [1-^14 C] oleoyl-CoA and endogenous cholesterol. […]

[2] = Plasma Cholesterol Lowering Activity in Cholesterol Fed Rat; type: in vivo, rat (Sarague-Dawely); conditions: 1% cholesterol diet containing 0.0003% of test compound for 7 days; Example 3 dose 0.27 ± 0.02, Example 24 dose 0.24 ± 0.03 mg/kg/day; mean ± standard deviation; *p < 0.05 (t test vs control group 195 ± 32)
Method: To 7-week old, male Sarague-Dawely rats which were grouped according to body weight was fed 1% cholesterol diet containing 0.5% of cholic acid, 5% of olive oil and 0.0003% of a test compound for 7 days. Blood was collected from the rats during 8:30-10:00 am at the fed state, and the plasma cholesterol level was measured enzymatically. The amount of test compound consumed by rats was calculated on the basis of the amount of the diet consumed by the rats.

Row | inhibition at 1 µM [1] [%] | IC50 [1] [nM] | Compound | Cholesterol in Serum [2] [mg/dL]
1 | 99.2 | 16 | Cc1cccc(C(C)C)c1NC(=O)Nc1c(-c2ccccc2Cl)c2cc(Cl)ccc2n(C)c1=O [Example 2] | –
2 | 98.7 | 6.4 | Cc1cc2c(-c3ccccc3Cl)c(NC(=O)Nc3ccc(F)cc3F)c(=O)n(C)c2cc1C [Example 3, N-[4-(2-chlorophenyl)-1,6,7-trimethyl-1,2-dihydro-2-oxo-3-quinolyl]-N'-(2,4-difluorophenyl)urea] | 129 ± 19
3 | 98.2 | 18 | Cc1cc(C)c2c(c1)c(-c1ccccc1Cl)c(NC(=O)Nc1c(C)cccc1C(C)C)c(=O)n2C [Example 5, N-[4-(2-chlorophenyl)-1,2-dihydro-1,6,8-trimethyl-2-oxo-3-quinolyl]-N'-(2-isopropyl-6-methylphenyl)urea] | –
4 | 97.9 | – | CCn1c(=O)c(NC(=O)Nc2ccc(F)cc2F)c(-c2ccccc2Cl)c2cc(C)cc(C)c21 [Example 6, N-[4-(2-chlorophenyl)-1-ethyl-1,2-dihydro-6,8-di-methyl-2-oxo-3-quinolyl]-N'-(2,4-difluorophenyl)urea] | –
5 | 77.9 | – | Cn1c(=O)c(NC(=O)Nc2ccc(F)cc2F)c(-c2ccccc2)c2cc(Cl)ccc21 [Example 7, N-(6-chloro-1,2-dihydro-1-methyl-2-oxo-4-phenyl-3-quinolyl)-N'-(2,4-difluorophenyl)urea] | –
6 | 89.6 | – | COc1nc2ccc(Cl)cc2c(-c2ccccc2Cl)c1NC(=O)Nc1ccc(F)cc1F [Example 9] | –
7 | 96.6 | – | COc1ccc(-c2c(NC(=O)Nc3ccc(F)cc3F)c(=O)n(C)c3ccc(C)cc23)cc1OC [Example 11, N-(2,4-difluorophenyl)-N'-[1,2-dihydro-4-(3,4-di-methoxyphenyl) -1,6-dimethyl-2-oxo-3-quinolyl]urea] | –
8 | 99.2 | 12 | CCc1ccc2c(c1)c(-c1ccccc1Cl)c(NC(=O)Nc1c(C)cccc1C(C)C)c(=O)n2C [Example 18, N-[4-(2-chlorophenyl)-1,2-dihydro-6-ethyl-1-methyl-2-oxo-3-quinolyl]-N'-(2-isopropyl-6-methylphenyl)urea] | –
9 | 99 | 41 | COc1ccc(-c2c(NC(=O)Nc3c(C)cccc3C(C)C)c(=O)n(C)c3ccc(Cl)cc23)cc1OC [Example 23] | –

Continued, compound first:

Row | Compound | inhibition at 1 µM [1] [%] | IC50 [1] [nM] | Cholesterol in Serum [2] [mg/dL]
10 | Cn1c(=O)c(NC(=O)Nc2ccc(F)cc2F)c(-c2ccccc2Cl)c2cc(Cl)ccc21 [Example 1] | 96.8 | – | –
11 | Cc1cc(C)c2c(c1)c(-c1ccccc1Cl)c(NC(=O)Nc1ccc(F)cc1F)c(=O)n2C [Example 4, N-[4-(2-chlorophenyl)-1,2-dihydro-1,6,8-trimethyl-2-oxo-3-quinolyl]-N'-(2,4-difluorophenyl)urea] | 97.1 | – | –
12 | Cc1cc2c(-c3ccccc3C)c(NC(=O)Nc3ccc(F)cc3F)c(=O)n(C)c2cc1C [Example 10, N-(2,4-difluorophenyl)-N'-(1,2-dihydro-1,6,7-trimethyl-4-(2-methylphenyl)-2-oxo-3-quinolyl]urea] | 97.6 | 78 | –
13 | COc1nc2c(C)cc(C)cc2c(-c2ccccc2Cl)c1NC(=O)Nc1ccc(F)cc1F [Example 12, N-[4-(2-chlorophenyl)-2-methoxy-6,8-dimethyl-3-quinolyl]-N -(2,4-difluorophenyl)urea] | 95.9 | – | –
14 | Cc1cc(C)c2nc(C)c(NC(=O)Nc3ccc(F)cc3F)c(-c3ccccc3Cl)c2c1 [Example 13, N-[4-(2-chlorophenyl)-2,6,8-trimethyl-3-quinolyl]-N'-(2,4-difluorophenyl)urea] | 85.4 | – | –
15 | COc1cc(NC(=O)Nc2c(-c3ccccc3Cl)c3cc(C)c(C)cc3n(C)c2=O)cc(OC)c1OC(C)=O [Example 15, N-(4-acetoxy-3,5-di-methoxyphenyl) -N'-[4-(2-chlorophenyl)-1,2-dihydro-1,6,7-trimethyl-2-oxo-3-quinolyl]urea] | 90.1 | – | –
16 | CCc1ccc2c(c1)c(-c1ccccc1Cl)c(NC(=O)Nc1ccc(F)cc1F)c(=O)n2C [Example 17, N-[4-(2-chlorophenyl)-1,2-dihydro-6-ethyl-1-methyl-2-oxo-3-quinolyl]-N'-(2,4-difluorophenyl)urea] | 96.5 | 25 | –
17 | CC(C)c1ccc2c(c1)c(-c1ccccc1Cl)c(NC(=O)Nc1ccc(F)cc1F)c(=O)n2C [Example 19, N-[4-(2-chlorophenyl)-1,2-dihydro-6-isopropyl-1-methyl-2-oxo-3-quinolyl]-N'-(2,4-difluorophenyl)urea] | 97.8 | 37 | –
18 | Cc1ccccc1-c1c(NC(=O)Nc2ccc(F)cc2F)c(=O)n(C)c2ccc(Cl)cc12 [Example 20, N-[6-chloro-1,2-dihydro-1-methyl-4-(2-methylphenyl)-2-oxo-3-quinolyl]-N'-(2,4-difluorophenyl)urea] | 96.1 | 35 | –
19 | Cc1ccccc1-c1c(NC(=O)Nc2c(C)cccc2C(C)C)c(=O)n(C)c2ccc(Cl)cc12 [Example 21, N-[6-chloro-1,2-dihydro-1-methyl-4-(2-methylphenyl)-2-oxo-3-quinolyl]-N'-(2-isopropyl-6-methylphenyl)urea] | 99.4 | 17 | –
20 | COc1ccc(-c2c(NC(=O)Nc3c(C)cccc3C(C)C)c(=O)n(C)c3ccc(C)cc23)cc1OC [Example 22, N-[1,2-dihydro-4-(3,4-dimethoxyphenyl)-1,6-dimethyl-3-quinolyn]-N'-(2-isopropyl-6-methylphenyl)urea] | 99 | 37 | –
21 | Cc1cc2c(-c3ccccc3C)c(NC(=O)Nc3ccc(F)cc3F)c(=O)n(C)c2cc1Cl [Example 24, N-[7-chloro-1,2-dihydro-4-(2-methylphenyl)-1,6-dimethyl-2-oxo-3-quinolyl]-N'-(2,4-difluorophenyl)urea] | 99.2 | 9.3 | 113 ± 41
